Measured values: ChEMBL document CHEMBL1201862, “PubChem BioAssay data set” (2004)
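96-well plates; 48 h exposure; 5 concentrations. Endpoints by linear interpolation between flanking doses. Not reached: highest tested concentration assigned. The concentration for 50% growth inhibition is given as GI50.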 Activity calls are given as the source filed them. Rule as the data show it: active = GI50 up to about 1.1 µM and inactive = higher.

Experiments:
Test in all cases: DTP human tumour cell line panel, 48 h
[1] = tested on: HL-60
[2] = tested on: HCT-116
[3] = tested on: DLD-1
[4] = tested on: SNB-19
[5] = tested on: RPMI-8226
[6] = tested on: SW-620
[7] = tested on: UACC-62
[8] = tested on: HOP-62
[9] = tested on: EKVX
[10] = tested on: Malme-3M
[11] = tested on: LOX IMVI
[12] = tested on: HOP-92
[13] = tested on: HCT-15
[14] = tested on: ACHN
[15] = tested on: KM12
[16] = tested on: NCI-H226
[17] = tested on: U-251
[18] = tested on: UO-31
[19] = tested on: CAKI-1
[20] = tested on: K562

Row | SMILES | GI50 [1] | GI50 [2] | GI50 [3] | GI50 [4] | GI50 [5] | GI50 [6] | GI50 [7] | GI50 [8] | GI50 [9] | GI50 [10] | GI50 [11] | GI50 [12] | GI50 [13] | GI50 [14] | GI50 [15] | GI50 [16] | GI50 [17] | GI50 [18] | GI50 [19] | GI50 [20]
1 | CN(CCO)/N=N/c1[nH]cnc1C(N)=O | 79.3 µM (inactive) | 49.5 µM (inactive) | > 100 µM (inactive) | > 100 µM (inactive) | > 100 µM (inactive) | 69.3 µM (inactive) | 83.8 µM (inactive) | 74 µM (inactive) | > 100 µM (inactive) | 52.8 µM (inactive) | 26.2 µM (inactive) | 77.8 µM (inactive) | > 100 µM | > 100 µM (inactive) | > 100 µM (inactive) | > 100 µM (inactive) | > 100 µM (inactive) |  |  | 
2 | C=C(C)C1Cc2c(c3ccccc3n(C)c2=O)O1 (stereo unspecified) | > 100 µM (inactive) |  | > 100 µM (inactive) | > 100 µM (inactive) | > 100 µM (inactive) | > 100 µM (inactive) | > 100 µM (inactive) | < 0.01 µM (active) | > 100 µM (inactive) | > 100 µM (inactive) | > 100 µM (inactive) | 93.3 µM (inactive) | > 100 µM | > 100 µM (inactive) |  | > 100 µM (inactive) | > 100 µM (inactive) | > 100 µM (inactive) | > 100 µM (inactive) | > 100 µM (inactive)
3 | CC(=O)Nc1ccc(Sc2nnc(NC(C)=O)s2)cc1 | > 100 µM (inactive) | > 100 µM (inactive) |  | > 100 µM (inactive) | > 100 µM (inactive) | > 100 µM (inactive) |  | > 100 µM (inactive) | > 100 µM (inactive) |  |  |  | > 100 µM | > 100 µM (inactive) | > 100 µM (inactive) |  | > 100 µM (inactive) | > 100 µM (inactive) |  | > 100 µM (inactive)
4 | COc1cc(C2c3cc4c(cc3[C@@H](Nc3ccccc3)C3COC(=O)[C@H]23)OCO4)cc(OC)c1O (stereo partly specified) | 0.14 µM (active) | 0.391 µM (active) | 1.66 µM (inactive) | 0.34 µM (active) | 0.234 µM (active) | 0.792 µM (active) | 0.388 µM (active) | 0.155 µM (active) | 1.96 µM (inactive) | 1.41 µM (inactive) | 0.414 µM (active) | 0.857 µM (active) | 0.417 µM |  | 1.47 µM (inactive) | 0.28 µM (active) | 0.391 µM (active) | 0.531 µM (active) | 0.134 µM (active) | 0.931 µM (active)
5 | N#CCCN(CCC#N)c1ccc(/C=C(/NC(=O)Nc2ccccc2Cl)NC(=O)c2cc([N+](=O)[O-])ccc2Cl)cc1 |  | > 100 µM (inactive) | 56.1 µM (inactive) | > 100 µM (inactive) | 52.4 µM (inactive) | > 100 µM (inactive) | 57.8 µM (inactive) | > 100 µM (inactive) | > 100 µM (inactive) | > 100 µM (inactive) | > 100 µM (inactive) | > 100 µM (inactive) | > 100 µM | 42.2 µM (inactive) | > 100 µM (inactive) | > 100 µM (inactive) | > 100 µM (inactive) | 55.7 µM (inactive) | > 100 µM (inactive) | 64.6 µM (inactive)
